Test results as given in US20110281956A1, “USE OF THYMUS CAPITATUS EXTRACT, SATUREJA HORTENSIS EXTRACT, OR CARVACROL FOR TREATING METABOLIC DISEASES” (INDUSTRY-ACADEMIC COOPERATION FOUNDATION, YONSEI UNIVERSITY, priority 2009, published 2011).
“Also recorded” adds a separate entry of the source. Marks after values point to notes of the source that are not given here.

Assays:
[1] = test system: C57BL/6J mice on high-fat diet; experiment: Carvacrol-containing high-fat diet fed to mice for 10 weeks: abdominal fat, blood lipids, glucose, insulin, liver lipids; type: in vivo, mouse
Description: High-fat diet (HFD: 40% fat calorie, 17 g lard+3% corn oil/100 g diet) was used to induce obesity. Carvacrol-containing diet had the same composition as the HFD except for containing 0.1% carvacrol. Normal diet (ND) was prepared according to AIN-76 rodent diet (see Table 1).
5-week-old male C57BL/6J mice were accustomed to the laboratory environment for a week while feeding solid feed. They were randomly divided into the ND, HFD and carvacrol groups according to the randomized block design and reared for 10 weeks. Diet was provided between 10 and 11 a.m. every day along with water. Food intake was measured every day, and body weight was measured every 3 days. In order to avoid transient body weight increase due to feed intake, body weight was measured 2 hours after removing the feedbox.
After fasting the test animal for at least 12 hours and anesthetizing with diethyl ether, blood, liver and abdominal fat tissue (epididymal, perirenal, mesenteric and retroperitoneal fat) were taken and weighed after washing with 0.1 M PBS (pH 7.4). The blood taken from the abdominal aorta was centrifuged at 1000×g for 15 minutes to isolate the serum.
Total cholesterol level, triglyceride level, glucose level and insulin level in plasma and lipid components in liver tissue were measured as follows. Total cholesterol level, triglyceride level and glucose level in plasma were measured 2 times using a commercially available kit (Bio Clinical System), and insulin level was measured by ELISA using a mouse Insulin kit (Shibayali, Japan). Lipid components were extracted from liver tissue according to Folch et al.'s method (Folch J, Lees M, Sloane Stanley G H. A simple method for the isolation and purification of total lipids from animal tissues. J. Biol. Chem. 1957; 226: 497-509) as follows. After adding 1 mL of distilled water to 0.25 g of liver tissue, the liver tissue was homogenized using a Polytron homogenizer (IKA-WERKE GmbH & Co., Ultra-Turrax, Staufen, Germany). After adding 5 mL of a chloroform/methanol mixture solution (2:1, v/v) to the homogenate and mixing well, centrifugation was performed at 1000×g for 10 minutes. Then, after separating the pellets and adding 2 mL of the chloroform/methanol mixture solution (2: 1, v/v) again to the supernatant, the same procedure was repeated to completely isolate the lipid components. After adding 3 mL of a chloroform/methanol/0.05% CaCl2 mixture solution (3:48:47, v/v/v) to thus obtained pellets and mixing for 1 minute, centrifugation was performed at 1000×g for 10 minutes. Finally, the resulting pellets were completely dried using nitrogen gas and the dried lipids were dissolved in 1 mL of methanol for analysis of the lipid components. Triglyceride level of the liver tissue was measured as in the plasma analysis using the same commercially available kit (Bio Clinical System).
In Table 2, the characters a, b and c indicate significance according to one-way ANOVA and Duncan's multiple range test (p<0.001). The atherogenic index was calculated by (total cholesterol−HDL cholesterol)/HDL cholesterol, and the insulin resistance index was calculated by 10^−3 pmol insulin×mmol glucose×L^−2.

[2] = test system: leiomyosarcoma cells isolated from rats cancer-induced with 3,4-benzopyrene; details: carvacrol at 67 μM for 24 hours or at 90 μM for 48 hours; cited from earlier work
preadipocytes 3T3-L1 = experiment: Adipocyte differentiation inhibition, Oil Red O staining; type: cell-based, mouse; details: 14 days
Description: The effect of carvacrol […] on adipocyte differentiation and growth was investigated using mouse adipocytes (3T3-L1). Preadipocytes 3T3L1 were placed on a 12-well plate and cultured to confluency in a 5% CO2 incubator at 37° C. using DMEM containing 1% penicillin-streptomycin, 1% non-essential amino acids and 10% fetal bovine serum (FBS). The cultured 3T3-L1 cells were differentiated into adipocytes by culturing for 2 days in a medium containing 0.5 mM methylisobutylxanthine/1 μM dexamethasone/1 μg/mL insulin (DMI). The cells were differentiated into mature adipocytes by further culturing for 2 days in DMEM containing 1 μg/mL insulin. Subsequently, they were further cultured for 10 days while changing DMEM every other day to obtain fully differentiated adipocytes.
Starting from the day when DMI was added to the 3T3-L1 cells, carvacrol was treated at concentrations of 0.1, 1, 10, 50 and 100 μM every other day. Carvacrol was purchased from Sigma and used after dissolving in DMSO. For negative control, only DMSO was used. After the culturing for a total of 14 days, when the cells were fully differentiated, the medium was removed and the fats contained in the differentiated adipocytes were stained. […]
To measure the triglyceride level of the differentiated 3T3-L1 cells, the stained cells were dissolved in 1 mL of isobutanol and OD value was measured at 600 nm.

[3] = 0.1% carvacrol in high-fat diet
[4] = 0.1% carvacrol in high-fat diet, FIG. 2
[5] = blood (plasma), 0.1% carvacrol in high-fat diet
[6] = liver tissue, 0.1% carvacrol in high-fat diet

## Cc1ccc(C(C)C)cc1O [Carvacrol, carvacrol]
[1]; [3]
  Liver weight: 4.1 ± 0.1^b g/100 g body wt
  decrease in LDL+VLDL cholesterol level in plasma (serum) vs HFD: 46%
  decrease in atherogenic index vs HFD: 44%
  decrease in cholesterol level in liver tissue vs HFD: 42%
  decrease in free fatty acid level in liver tissue vs HFD: 58%
  decrease in free fatty acid level in plasma (serum) vs HFD: 80%
  decrease in liver weight (liver-to-body weight ratio) vs HFD: 25%
  decrease in total cholesterol level in plasma (serum) vs HFD: 29%
  decrease in triglyceride level in liver tissue vs HFD: 48%
  decrease in triglyceride level in plasma (serum) vs HFD: 30%
  fasting blood sugar as compared to the HFD group: significant decrease
  insulin level as compared to the HFD group: significant decrease
  insulin resistance index as compared to the HFD group: significant decrease
[1]; [4]
  decrease in epididymal fat weight vs HFD: 31%
  decrease in mesenteric fat weight vs HFD: 51%
  decrease in perirenal fat weight vs HFD: 54%
  decrease in retroperitoneal fat weight vs HFD: 23%
  decrease in total abdominal fat weight vs HFD: 36%
[1]; 10^−3 pmol insulin×mmol glucose×L^−2, 0.1% carvacrol in high-fat diet
  Insulin resistance index: 0.68 ± 0.08^b
[1]; (total cholesterol−HDL cholesterol)/HDL cholesterol, 0.1% carvacrol in high-fat diet
  Atherogenic index: 0.57 ± 0.18^b
[1]; ELISA, 0.1% carvacrol in high-fat diet
  Insulin: 0.58 ± 0.06^b ng/mL
[1]; [5]
  Free fatty acid: 280 ± 35^c uEq/L
  HDL cholesterol: 1.68 ± 0.16^ab mmol/L
  LDL + VLDL cholesterol: 1.11 ± 0.05^b mmol/L
  Total cholesterol: 2.73 ± 0.30^b mmol/L
  Triglyceride: 0.98 ± 0.14^b mmol/L
[1]; fasting, blood (plasma), 0.1% carvacrol in high-fat diet
  Glucose: 6.83 ± 0.31^b mmol/L
[1]; [6]
  Cholesterol: 45.4 ± 5.5^b μmol/g
  Free fatty acid: 10.3 ± 0.73^b uEq/g
  Triglyceride: 22.0 ± 6.0^b μmol/g
[2]
  production of the final product of platelet aggregation thromboxane B2: decreased
  proliferation of cancer cells: inhibited
Preadipocytes 3T3-L1; 0.1-100 μM, FIG. 1B
  fats stained with Oil Red O, OD value at 600 nm (cellular fat content): decreased the cellular fat content in a concentration-dependent manner; also recorded: decrease in OD value in a concentration-dependent manner
Preadipocytes 3T3-L1; concentration-dependent, 0.1, 1, 10, 50 and 100 μM every other day, FIG. 1A
  concentrations at which differentiation of the preadipocytes 3T3-L1 was decreased: ≥ 10 µM
